Experiment: xn = mol fraction of the nth substance listed
Conditions: 101 kPa, Liquid; for viscosity: Concentric cylinders viscometry

C1CCCCC1 [cyclohexane] + Cc1ccccc1
Conditions	mass density, 283.15 K [kg/m3]	mass density, 293.15 K [kg/m3]	mass density, 303.15 K [kg/m3]	mass density, 313.15 K [kg/m3]	mass density, 323.15 K [kg/m3]	viscosity, 283.15 K [mPa·s]	viscosity, 293.15 K [mPa·s]	viscosity, 303.15 K [mPa·s]	viscosity, 313.15 K [mPa·s]	viscosity, 323.15 K [mPa·s]
x1 = 0.0958	866.15	856.9	847.5	838.15	828.65	0.6712	0.5995	0.5395	0.4879	0.4428
x1 = 0.196	855.85	846.6	837.2	827.8	818.35	0.6623	0.5908	0.5306	0.4776	0.431
x1 = 0.2986	846	836.7	827.3	817.9	808.45	0.6792	0.6051	0.543	0.487	0.4426
x1 = 0.3988	836.5	827.2	817.8	808.4	798.9	0.6948	0.6171	0.5524	0.4971	0.4491
x1 = 0.4974	827.65	818.35	808.9	799.45	789.95	0.7218	0.6378	0.5683	0.5095	0.4589
x1 = 0.5989	818.8	809.4	800	790.5	781	0.7635	0.67	0.5935	0.5294	0.4735
x1 = 0.6977	810.1	800.7	791.3	781.8	772.25	0.8203	0.7137	0.6274	0.5553	0.4886
x1 = 0.7998	802.5	793.1	783.65	774.15	764.5	0.9103	0.7838	0.6824	0.5987	0.5292
x1 = 0.8994	794.8	785.5	776.1	766.5	756.9	0.9994	0.8472	0.7271	0.6373	0.5583
x1 = 1	787.95	778.7	769.2	759.65	749.9	1.18	0.9847	0.8295	0.7061	0.5978

Reference: the NIST ThermoML archive (doi:10.1021/je800940j)
